In US20110008264A1, “METHOD FOR REPELLING A RODENT, METHOD FOR CAPTURING A RODENT AND RODENT REPELLENT” (Earth Chemical Co., Ltd., priority 2006, published 2011):

Legend:
mouse (ddY male mouse) = experiment: Inhibition zone formation around impregnated filter paper in rearing cage (Test Example 6); type: in vivo; details: 50 μl on filter paper, 16 mice; for Formation rate of inhibition zone: time until inhibition zone is formed
Description: A total of 16 animals of a mouse (ddY male mouse of 7 weeks of age) were released in a rearing cage (16 cm in breadth, 23 cm in length and 20 cm in height). Thereafter, a piece of filter paper (1 cm in width and 10 cm in length) impregnated with 50 μl of essential oil shown in the following Table 4 or 50 μl of water was hung down from the center of the ceiling of the rearing cage, and a period of time until a state in which mice gathered in the periphery in the rearing cage but mice are not present around the filter paper (inhibition zone) is formed was measured.

rodent (mouse) = type: in vivo; details: Test Example 1, text; azodicarbonamide at 0.2 g, nitrocellulose at 23 g

CC1=CCC(C(C)C)=CC1 [γ-Terpinene]
Presence of inhibition zone (mouse (ddY male mouse)): present | Formation rate of inhibition zone (mouse (ddY male mouse)): 23 s

Cc1ccc(C(C)C)cc1 [p-Cymene]
Presence of inhibition zone (mouse (ddY male mouse)): present | Formation rate of inhibition zone (mouse (ddY male mouse)): 50 s

NC(=O)N=NC(N)=O [azodicarbonamide]
Repelled rodents in comparison with the control (rodent (mouse)): a distinct difference was observed in comparison with the control

CCCCCCOC(C)=O [Hexyl acetate]
Presence of inhibition zone (mouse (ddY male mouse)): present | Formation rate of inhibition zone (mouse (ddY male mouse)): 24 s
